For 32 compounds, IC50 results are on record in the Kinase Knowledgebase extract (Sharma et al. 2016).

The term IC50 denotes the point on the concentration scale where inhibition reaches its midpoint. A lower IC50 goes with higher potency.

For this assay, the target named is EGFR (human) (UniProt P00533). The settings on record: hn5.
EGFR (human), sequence (P00533 whole entry, looked up): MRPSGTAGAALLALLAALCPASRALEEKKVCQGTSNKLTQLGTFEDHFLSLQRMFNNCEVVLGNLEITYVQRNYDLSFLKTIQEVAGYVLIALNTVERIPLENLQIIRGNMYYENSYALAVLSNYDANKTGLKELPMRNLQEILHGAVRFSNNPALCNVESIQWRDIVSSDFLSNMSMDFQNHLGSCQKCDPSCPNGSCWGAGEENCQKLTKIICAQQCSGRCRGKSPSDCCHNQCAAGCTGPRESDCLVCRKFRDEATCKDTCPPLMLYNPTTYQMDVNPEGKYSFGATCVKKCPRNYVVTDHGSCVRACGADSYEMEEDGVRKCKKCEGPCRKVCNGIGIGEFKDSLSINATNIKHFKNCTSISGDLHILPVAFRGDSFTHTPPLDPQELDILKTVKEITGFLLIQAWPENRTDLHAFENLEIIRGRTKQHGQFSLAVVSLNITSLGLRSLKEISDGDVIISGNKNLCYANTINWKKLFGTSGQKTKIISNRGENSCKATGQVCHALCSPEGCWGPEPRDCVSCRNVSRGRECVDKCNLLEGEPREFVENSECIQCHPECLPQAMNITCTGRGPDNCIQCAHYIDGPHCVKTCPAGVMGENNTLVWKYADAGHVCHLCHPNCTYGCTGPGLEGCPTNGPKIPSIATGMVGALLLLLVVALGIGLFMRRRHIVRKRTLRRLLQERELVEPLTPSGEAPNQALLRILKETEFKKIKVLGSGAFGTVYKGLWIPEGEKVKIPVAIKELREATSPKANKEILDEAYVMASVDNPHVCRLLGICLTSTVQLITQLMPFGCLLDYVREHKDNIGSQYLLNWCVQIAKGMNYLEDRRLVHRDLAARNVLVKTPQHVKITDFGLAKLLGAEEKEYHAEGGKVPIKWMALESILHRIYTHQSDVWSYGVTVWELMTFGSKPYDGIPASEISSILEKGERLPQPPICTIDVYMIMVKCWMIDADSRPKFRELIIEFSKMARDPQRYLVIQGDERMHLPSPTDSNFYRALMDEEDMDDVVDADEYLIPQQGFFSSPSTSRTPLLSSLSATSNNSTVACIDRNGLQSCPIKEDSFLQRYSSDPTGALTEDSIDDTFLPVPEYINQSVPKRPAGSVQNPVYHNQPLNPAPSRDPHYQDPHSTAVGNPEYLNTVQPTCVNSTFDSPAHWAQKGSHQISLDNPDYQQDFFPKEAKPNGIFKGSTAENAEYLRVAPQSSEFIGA
In the case of `CS(=O)(=O)CCNCc1ccoc1-c1ccc2ncnc(Nc3ccc(OCc4ccccc4)cc3)c2c1`, the IC50 is 5 to 25 µM.
For `CS(=O)(=O)CCNCc1ccc(-c2ccc3ncnc(Nc4ccc(OCc5cccc(C(F)(F)F)c5)cc4)c3c2)o1` the value was 5 to 25 µM; for `CS(=O)(=O)CCNCc1nc(-c2ccc3ncnc(Nc4ccc(OCc5cccc(C(F)(F)F)c5)cc4)c3c2)cs1`, less than 5 µM; for `CS(=O)(=O)CCNCc1ccc(-c2cc3c(Nc4ccc(OCc5ccc(F)cc5)cc4)ncnc3cn2)o1`, less than 5 µM.
For `COc1cc(Nc2ncnc3ccc(-c4csc(CNCCS(C)(=O)=O)n4)cc23)ccc1OCc1cccc(F)c1`, the IC50 lay in the range of 5 to 25 µM.
Compound `CS(=O)(=O)CCNCc1ccc(-c2cc3c(Nc4ccc(OCc5ccccc5)cc4)ncnc3cc2F)o1` registered an IC50 of less than 5 µM.
With `CS(=O)(=O)CCNCc1coc(-c2ccc3ncnc(Nc4ccc(OCc5ccccc5)cc4)c3c2)c1`, the IC50 is less than 5 µM.
Take `COc1cc2ncnc(Nc3ccc(S(=O)(=O)c4ccccc4)cc3)c2cc1-c1ccc(CNCCS(C)(=O)=O)o1`: the IC50 is less than 5 µM.
`CS(=O)(=O)CCNCc1ccc(-c2ccc3ncnc(Nc4ccc(OCc5ccccc5)c(F)c4)c3c2)o1` displayed an IC50 of less than 5 µM.
Compound `COc1cc(Nc2ncnc3ccc(-c4ccc(CNCCS(C)(=O)=O)o4)cc23)ccc1OCc1cccc(F)c1` came in with an IC50 of less than 5 µM.
`CS(=O)(=O)CCNCc1nc(-c2ccc3ncnc(Nc4ccc(OCc5cccc(Br)c5)cc4)c3c2)cs1` gave an IC50 of 25 to 50 µM.
As for `CS(=O)(=O)CCNCc1ccc(-c2ccc3ncnc(Nc4ccc(OCc5cccc(F)c5)cc4)c3c2)o1`, the IC50 was less than 5 µM.
`CS(=O)(=O)CCNCc1ccc(-c2ccc3ncnc(Nc4ccc(OCc5cccc(Br)c5)cc4)c3c2)o1` registered an IC50 of less than 5 µM.
In the case of `CS(=O)(=O)CCNCc1nc(-c2ccc3ncnc(Nc4ccc(OCc5cccc(F)c5)c(F)c4)c3c2)cs1`, the half-inhibitory concentration (IC50) is less than 5 µM.
With `CS(=O)(=O)CCNCc1ccc(-c2ccc3ncnc(Nc4ccc(OCc5ccccc5)c(C(F)(F)F)c4)c3c2)o1` the figure was less than 5 µM.
For `CS(=O)(=O)CCNCc1ccc(-c2cc3c(Nc4ccc(S(=O)(=O)c5ccccc5)cc4)ncnc3cc2F)o1` the value was 5 to 25 µM.
On to `COc1cc2ncnc(Nc3ccc4c(cnn4Cc4ccccc4)c3)c2cc1-c1ccc(CNCCS(C)(=O)=O)o1`, for which the IC50 was less than 5 µM.
`CS(=O)(=O)CCNCc1ccc(-c2ccc3ncnc(Nc4ccc(OCc5ccccc5)c(Cl)c4)c3c2)o1` had an IC50 of less than 5 µM.
`CS(=O)(=O)CCNCc1nc(-c2ccc3ncnc(Nc4ccc(S(=O)(=O)c5ccccc5)cc4)c3c2)cs1` showed an IC50 of less than 5 µM.
With `CS(=O)(=O)CCNCc1nc(-c2ccc3ncnc(Nc4ccc(OCc5cccc(F)c5)cc4)c3c2)cs1` the figure was less than 5 µM; with `CS(=O)(=O)CCNCc1nc(-c2ccc3ncnc(Nc4ccc5c(cnn5Cc5cccc(F)c5)c4)c3c2)cs1`, less than 5 µM; with `CS(=O)(=O)CCNCc1ccc(-c2ccc3ncnc(Nc4ccc(S(=O)(=O)c5ccccc5)cc4)c3c2)o1`, less than 5 µM.
Compound `COc1cc2ncnc(Nc3ccc(OCc4ccccc4)cc3)c2cc1-c1ccc(CNCCS(C)(=O)=O)o1` showed an IC50 of less than 5 µM.
With `CS(=O)(=O)CCNCc1ccc(-c2cc3c(Nc4ccc5c(cnn5Cc5ccccc5)c4)ncnc3cc2F)o1` the figure was less than 5 µM; with `CS(=O)(=O)CCNCc1nc(-c2ccc3ncnc(Nc4ccc5c(cnn5Cc5ccccc5)c4)c3c2)cs1`, less than 5 µM.
As to `CS(=O)(=O)CCNCc1ccc(-c2cc3c(Nc4ccc(OCc5cccc(F)c5)cc4)ncnc3cn2)o1`, the IC50 was less than 5 µM.
`CS(=O)(=O)CCNCc1nc(-c2ccc3ncnc(Nc4ccc(OCc5ccccc5)cc4)c3c2)cs1` yielded an IC50 of less than 5 µM.
In turn, `CS(=O)(=O)CCNCc1coc(-c2cc3c(Nc4ccc(OCc5cccc(F)c5)cc4)ncnc3cn2)c1` had a half-inhibitory concentration (IC50) of less than 5 µM.
With `CS(=O)(=O)CCNCc1nc(-c2ccc3ncnc(Nc4ccc(OCc5ccccc5)c(F)c4)c3c2)cs1` the figure was less than 5 µM; with `CS(=O)(=O)CCNCc1ccc(-c2ccc3ncnc(Nc4ccc(OCc5cccc(F)c5)c(F)c4)c3c2)o1`, less than 5 µM; with `CS(=O)(=O)CCNCc1cccc(-c2cc3c(Nc4ccc(OCc5ccccc5)cc4)ncnc3cn2)c1`, less than 5 µM.
In turn, `CS(=O)(=O)CCNCc1ccc(-c2cc3c(Nc4ccc(S(=O)(=O)c5ccccc5)cc4)ncnc3cn2)o1` gave an IC50 of less than 5 µM.
